The results in this text go back to article PMC10223062, “Discovery of Novel Thiophene/Hydrazones: In Vitro and In Silico Studies against Pancreatic Cancer” (Pharmaceutics, 2023).

The target of one data set is T1, COX-2 (Homo sapiens, UniProt P35354).
T1 sequence (P35354 18-604): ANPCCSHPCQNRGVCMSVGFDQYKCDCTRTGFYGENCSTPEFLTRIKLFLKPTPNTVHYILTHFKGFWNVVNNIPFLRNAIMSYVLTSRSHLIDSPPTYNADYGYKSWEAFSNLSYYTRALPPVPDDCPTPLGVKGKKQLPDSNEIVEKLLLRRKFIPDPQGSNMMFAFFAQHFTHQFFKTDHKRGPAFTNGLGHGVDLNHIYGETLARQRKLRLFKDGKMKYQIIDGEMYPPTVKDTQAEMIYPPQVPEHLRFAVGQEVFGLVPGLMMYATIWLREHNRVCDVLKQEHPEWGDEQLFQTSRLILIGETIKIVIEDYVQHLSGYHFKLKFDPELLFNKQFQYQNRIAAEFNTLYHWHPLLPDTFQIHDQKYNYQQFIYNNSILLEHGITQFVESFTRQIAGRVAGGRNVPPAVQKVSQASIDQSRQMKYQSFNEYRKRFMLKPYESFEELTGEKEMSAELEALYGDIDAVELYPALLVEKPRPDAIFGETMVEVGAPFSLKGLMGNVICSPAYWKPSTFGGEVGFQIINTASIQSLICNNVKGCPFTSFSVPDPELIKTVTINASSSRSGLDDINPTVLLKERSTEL
Description: Fluorometric COX-2 inhibitor screening kit. To be noted: at 10 µM.

In the next data set the target is T2, 5-LOX (Homo sapiens, UniProt P09917).
T2 construct: purchased MyBioSource
T2 sequence (P09917 1-674): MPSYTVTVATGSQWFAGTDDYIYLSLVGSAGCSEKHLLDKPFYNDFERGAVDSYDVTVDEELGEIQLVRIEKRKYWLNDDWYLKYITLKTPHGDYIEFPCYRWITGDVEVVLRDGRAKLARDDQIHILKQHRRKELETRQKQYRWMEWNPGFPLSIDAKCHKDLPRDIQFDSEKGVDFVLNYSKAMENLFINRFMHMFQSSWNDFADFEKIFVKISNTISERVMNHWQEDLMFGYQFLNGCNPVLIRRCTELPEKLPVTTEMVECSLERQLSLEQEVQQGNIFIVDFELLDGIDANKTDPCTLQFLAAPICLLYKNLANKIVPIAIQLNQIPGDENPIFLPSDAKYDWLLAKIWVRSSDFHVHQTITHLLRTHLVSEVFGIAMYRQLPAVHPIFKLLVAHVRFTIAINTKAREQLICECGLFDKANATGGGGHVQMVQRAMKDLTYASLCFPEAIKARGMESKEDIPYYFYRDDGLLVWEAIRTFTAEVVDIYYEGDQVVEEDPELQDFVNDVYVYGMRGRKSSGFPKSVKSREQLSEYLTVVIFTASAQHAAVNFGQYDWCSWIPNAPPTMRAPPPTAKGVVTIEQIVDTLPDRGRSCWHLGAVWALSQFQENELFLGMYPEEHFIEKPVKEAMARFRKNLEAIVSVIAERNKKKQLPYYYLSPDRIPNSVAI
Description: Fluorometric 5-LOX inhibitor screening kit. To be noted: for 5-LOX Percent of İnhibition: at 10 µM. In kind it is biochemical. As for the experimental part: COX-1 and COX-2 inhibitory activities were tested using fluorometric COX-1 and COX-2 inhibitor screening kits (Abcam, United Kingdom), and the 5-LOX inhibitory activity was tested using a fluorometric 5-LOX inhibitor screening kit (MyBioSource, USA). These assays are based on the fluorometric detection of Prostaglandin G2 (a product generated by the COX enzyme) or on the fluorometric detection of the intermediate generated by the 5-LOX enzyme. The experiments were conducted in accordance with the manufacturers’ instructions.
For the determination of 5-LOX inhibitory activity, tested compounds were dissolved in DMSO (5 mM stock solution) and then diluted with the same solvent to obtain the test solutions. Test solutions were added to wells in an amount of 2 µL in the final 100 µL reaction volume. […] EC, SC, IC, and all test solutions were analyzed in triplicate.

In data set [1] the test system is MIA PaCa-2 tumor spheroids. Description: 3D spheroid formation/growth assay. Type of data set: cell-based, human. More on the design: Spheroid Diameter Day 0 / Spheroid Diameter Day 9: unit not given here. The following applies: for Spheroid Diameter Day 0: Day 0 (baseline). As for the experimental part:
(§1) For the preliminary assessment of anticancer activity in a 2D cell culture system, an MIA PaCa-2 human pancreas epithelial carcinoma (CRL-1420™) cell line (ATCC, Manassas, VA, USA) was cultured in Dulbecco’s Modified Eagle Medium with 10% fetal bovine serum (FBS, v/v) (Gibco, Billings, MT, USA) and supplemented with 1% antibiotics (10,000 μg/mL streptomycin and 10,000 U/mL penicillin) (Gibco, Billings, MT, USA) at 37 °C in a humidified 5% CO2 atmosphere. For the in vitro modeling of the tumor microenvironment, compounds were also tested in a 3D spheroid test system. For this purpose, the MIA PaCa-2 human pancreas epithelial carcinoma (CRL-1420™) cell line and human dermal fibroblast cell line HDF (PCS-201-012) cells were used.
For 3D spheroid formation, the MIA PaCa-2 cells (PC cell line) and HDF cells were used according to the 3D Bioprinting method. To better simulate the tumor microenvironment, PC cells were mixed (1:1) with human fibroblasts. Briefly, the MIA PaCa-2 cells and human fibroblasts at 70–80% confluency were added to a 6-well plate and incubated with biocompatible NanoShuttle TM-PL (Bioprinting Kit, Greiner Bio-One, Germany) overnight at 37 °C in a humidified 5% CO2 atmosphere. After the nanoparticles were taken up by the cells, they were resuspended and seeded into an ultra-low attachment 96-well plate at a volume of 100 μL (2000 PC cells and 2000 human fibroblasts per well) volume. The plate was placed on a magnetic drive and incubated at 37 °C in a humidified 5% CO2 atmosphere until spheroids were formed. After two days of incubation, the spheroids were photographed using light microscopy (Carl Zeiss Primo Vert, Germany). Fresh medium containing 0.1, 1, 10, and 100 µM of tested compound was added to the wells. Photos were taken every 72 h, and the medium was replaced every 72 h. The effect of the tested compounds in 3D PC cell cultures was examined by measuring the size change of spheroids using ImageJ software (ImageJ 2.0 software, USA).

The subject of the next data set is MIA PaCa-2 cell line. Description: 2D anticancer activity, MTT assay. Type of data set: cell-based. The following applies: Homo sapiens, 72 h exposure, read-out: IC50 in 2D cultured MIA PaCa-2 cell line. The method, then:
as §1
For the assessment of anticancer activity of the compounds, the MIA PaCa-2 cells were plated in 48-well microplates at 1.5 × 10^5 cells/mL and incubated for 24 h at 37 °C in 5% CO2 in accordance with a previously reported method. Following the day, the cells were treated with compounds in various concentrations between 0.1–100 µM dissolved in dimethyl sulfoxide (DMSO) (Sigma Aldrich, St. Louis, MO, USA). Following the 72 h of incubation, culture mediums were discarded and 0.5 mg/mL 3-(4,5-Dimethylthiazol-2-yl)-2,5-Diphenyltetrazolium Bromide (MTT) (Sigma Aldrich, St. Louis, MO, USA) was added to each well for an additional 2 h at 37 °C. After 2 h incubation, the medium was discarded and 100 µL of isopropanol (Sigma Aldrich, St. Louis, MO, USA) was added to the wells to dissolve formazan crystals. The optical density was measured at 570 nm wavelength using a microplate reader (Thermo Fisher Scientific Multiskan, Finland). Doxorubicin hydrochloride (DOX) (European Pharmacopoeia standard, Sigma) was used as internal positive control, and 0.5% DMSO (v/v) was used as negative control. The percentage of cell viability was determined by using the following equation:(1) Viability %=(Absorbancecompound)/(Absorbancenegative control)×100%

Description for COX-2: For the determination of COX-1 and COX-2 inhibitory activity, the tested compounds were dissolved in dimethyl sulfoxide (DMSO, 5 mM stock solution) and then diluted with the same solvent to obtain the test solutions. The test solutions were further diluted 5× with COX Assay Buffer (2 µL of test solution: 8 µL COX Assay Buffer). […] Solvent Control (SC) was prepared by adding 2 µL DMSO and 8 µL COX Assay Buffer, while Sample (S) and Enzyme Control (EC) were prepared by adding 10 µL of diluted test solution and COX Assay Buffer, respectively, into assigned wells.

Turning to `O=C(N/N=C/c1cccc(O)c1)c1cc(-c2ccccc2)c(-c2ccccc2)s1` [7b, N’-[(E)-(3-hydroxyphenyl)methylidene]-4,5-diphenylthiophene-2-carbohydrazide], the melting point was 225 °C. Also, on COX-2, the “COX-2 Percent of İnhibition” value turned out to be 24.13 ± 1.55%. At 5-LOX, 93.2 ± 9.89 µM corresponded to half-maximal inhibition (IC50) and the “5-LOX Percent of İnhibition” value is 25.77 ± 2.54%. In addition, the “Spheroid Diameter Day 0” value in data set [1] (0.1 µM group) is on record as 1193.0 ± 13.1. For the same compound, the “Spheroid Diameter Day 9” value in data set [1] (0.1 µM) was found to be 5922.5 ± 39.8. Further, in data set [1] (1 µM group), the “Spheroid Diameter Day 0” value was determined as 1185.5 ± 82.7. In addition, the “Spheroid Diameter Day 9” value in data set [1] (1 µM) is 6461.5 ± 59.6. For the same compound, in data set [1] (10 µM group), the “Spheroid Diameter Day 0” value is 969.3 ± 28.9. Besides, in data set [1] (10 µM), the “Spheroid Diameter Day 9” value was 4192.0 ± 44.8. In addition, the “Spheroid Diameter Day 0” value in data set [1] (100 µM group) is on record as 644.7 ± 26.9. In addition, the “Spheroid Diameter Day 9” value in data set [1] (100 µM) is 1050.5 ± 18.9. In addition, the IC50 in the data set on MIA PaCa-2 cell line stood at 9.09 ± 1.11 µM.

Turning to `COc1ccc(/C=N/NC(=O)c2cc(-c3ccccc3)c(-c3ccccc3)s2)cc1OC` [7g, N’-[(E)-(3,4-dimethoxyphenyl)methylidene]-4,5-diphenylthiophene-2-carbohydrazide], the melting point came to 253 °C. For the same compound, the “COX-2 Percent of İnhibition” value on COX-2 is given as 11.41 ± 3.40%. The “5-LOX Percent of İnhibition” value on 5-LOX came out at 20.38 ± 1.98%. In addition, in data set [1] (0.1 µM group), the “Spheroid Diameter Day 0” value was 1222.5 ± 28.73. Besides, the “Spheroid Diameter Day 9” value in data set [1] (0.1 µM) was 5969.0 ± 59.6. In data set [1] (1 µM group), the “Spheroid Diameter Day 0” value came to 985.5 ± 65.7. Moreover, in data set [1] (1 µM), the “Spheroid Diameter Day 9” value is on record as 3318.0 ± 35.4. The “Spheroid state at the end of the 9 days” value in data set [1] (10–100 µM) is given as “disintegrated”. The concentration for half-maximal inhibition (IC50) in the data set with MIA PaCa-2 cell line turned out to be 24.2 ± 3.76 µM.

The compound `COc1ccc(/C=N/NC(=O)c2cc(-c3ccccc3)c(-c3ccccc3)s2)c(OC)c1OC` [7h, N’-[(E)-(2,3,4-trimethoxyphenyl)methylidene]-4,5-diphenylthiophene-2-carbohydrazide] came in with a melting point of 245 °C. The “COX-2 Percent of İnhibition” value on COX-2 is recorded as 8.35 ± 0.93%. The “5-LOX Percent of İnhibition” value at 5-LOX was found to be 19.87 ± 1.62%. For the same compound, the “Spheroid Diameter Day 0” value in data set [1] (0.1 µM group) is reported as 1125.5 ± 28.9. Besides, the “Spheroid Diameter Day 9” value in data set [1] (0.1 µM) amounted to 5215 ± 18.3. In addition, in data set [1] (1 µM group), the “Spheroid Diameter Day 0” value was 1220.5 ± 31.5. For the same compound, the “Spheroid Diameter Day 9” value in data set [1] (1 µM) was 6682.5 ± 7.1. Also, in data set [1] (10 µM group), the “Spheroid Diameter Day 0” value is reported as 1192.0 ± 24.7. The “Spheroid Diameter Day 9” value in data set [1] (10 µM) is reported as 8165.5 ±18.1. Besides, the “Spheroid Diameter Day 0” value in data set [1] (100 µM group) was 942.0 ± 58.9. In addition, the “Spheroid Diameter Day 9” value in data set [1] (100 µM) was found to be 7936.5 ± 48.6. In addition, the IC50 with MIA PaCa-2 cell line is more than 100 µM.

`COc1cc(/C=N/NC(=O)c2cc(-c3ccccc3)c(-c3ccccc3)s2)cc(OC)c1OC` [7i, N’-[(E)-(3,4,5-trimethoxyphenyl)methylidene]-4,5-diphenylthiophene-2-carbohydrazide]: the melting point was found to be 254 °C. For the same compound, the “COX-2 Percent of İnhibition” value on COX-2 is given as 13.27 ± 0.73%. For the same compound, the “5-LOX Percent of İnhibition” value on 5-LOX came out at 27.23 ± 0.64%. Besides, the “Spheroid Diameter Day 0” value in data set [1] (0.1 µM group) was determined as 1135.5 ± 2.5. Further, the “Spheroid Diameter Day 9” value in data set [1] (0.1 µM) is 5523.0 ± 15.2. In data set [1] (1 µM group), the “Spheroid Diameter Day 0” value was 943.0 ± 12.1. Besides, in data set [1] (1 µM), the “Spheroid Diameter Day 9” value turned out to be 3539.0 ± 25.4. Further, the “Spheroid Diameter Day 9” value in data set [1] (10 µM) is listed as 2764.0 ± 37.9. Besides, the “Spheroid Diameter Day 0” value in data set [1] (100 µM group) was found to be 1023.0 ± 59.5. The “Spheroid Diameter Day 9” value in data set [1] (100 µM) is given as 2776.5 ± 85.2. Moreover, the IC50 in the data set with MIA PaCa-2 cell line was more than 100 µM.

For `O=C(N/N=C/c1ccc2c(c1)OCO2)c1cc(-c2ccccc2)c(-c2ccccc2)s1` [7j, N’-[(E)-(2H-1,3-benzodioxol-5-yl)methylidene]-4,5-diphenylthiophene-2-carbohydrazide], the melting point was 262 °C. Further, the “COX-2 Percent of İnhibition” value on COX-2 worked out at 16.64 ± 1.11%. The “5-LOX Percent of İnhibition” value at 5-LOX was 36.10 ± 3.92%. Also, the “Spheroid Diameter Day 0” value in data set [1] (0.1 µM group) was found to be 1112.0 ± 35.4. Also, in data set [1] (0.1 µM), the “Spheroid Diameter Day 9” value stood at 6291.5 ± 45.87. For the same compound, the “Spheroid Diameter Day 0” value in data set [1] (1 µM group) was found to be 998.0 ± 11.5. For the same compound, the “Spheroid Diameter Day 9” value in data set [1] (1 µM) is 5934.0 ± 96.3. For the same compound, the “Spheroid Diameter Day 0” value in data set [1] (10 µM group) is 1068.0 ± 68.1. In addition, the “Spheroid Diameter Day 9” value in data set [1] (10 µM) is on record as 5217.4 ± 25.7. Further, in data set [1] (100 µM), the “Spheroid state at the end of the 9 days” value is recorded as “disintegrated”. Moreover, the IC50 with MIA PaCa-2 cell line stood at 9.65 ± 0.22 µM.

Regarding `CC(c1cc2ccccc2s1)N(O)C(N)=O` (stereo not drawn) [Zileuton, reference compound], the “5-LOX Percent of İnhibition” value at 5-LOX came to 64.85 ± 0.39%.
